1 molecule from patent US20100113599A1, “AMPHIPATHIC CARBOXYLATES FOR THE TREATMENT OF IMMUNE-RELATED DISORDERS” (Syndromex Ltd. c/o Yissum Research Development Company, of, priority 2007, published 2010) can be followed below.

Experiment [1] concerns STAT3. Description: LIF- or IL-6-induced STAT3 phosphorylation in HepG2 cells (Western blot). Format: cell-based, human. Here is the method: MEDICA drugs inhibit LIF-induced STAT3 phosphorylation. HepG2 cells were incubated with M16αα (200 μM) for 17 and 24 h. At each time point LIF (20 ng/ml) was added for the last 20 minutes (for protein) or for the last 3 h (for mRNA). Western blots of cell lysates were reacted with anti gp130 and anti P-STAT3 (Y705) antibodies and normalized by β-actin.
MEDICA drugs inhibit IL-6-induced STAT3 phosphorylation. HepG2 cells were incubated for 40 h with […] M16αα. IL-6 (20 ng/ml) was added for the last 15 h. Western blots of cell lysates were reacted, with anti GP-130, anti STAT3, anti P-STAT3 (Y705) and anti P-STAT3 (S727) antibodies and normalized by β-actin. Abbreviations: cont. (control), dim. (dimer), Tot. (total), mono. (monomer).
The examined effect of MEDICA drugs on expression of APP, was further analyzed by analyzing the effect of M16αα on downstream elements in the signaling pathway leading to expression of APP. Signal Transducers and Activators of Transcription 3 (STAT3), is a transcription factor phosphorylated by JAK kinases in response to cytokine activation of a cell surface receptor tyrosine kinases. Cytokines that activate STAT3 include growth hormone, IL-6 family cytokines, Oncostatin, LIF, CNTF and G-CSF, Leptin and others. As illustrated by FIG. 1, upon cytokine activation, the STAT3 proteins dimerize and are localized to the nucleus where they activate transcription of APP as well as of other cytokine-responsive genes coding for cell survival, growth and proliferation. Therefore, the inventors next examined whether the effect of MEDICA drugs on the expression of APP is a result of interfering with STAT3 transcription activity or whether MEDICA drugs are involved in a more upstream element of the transduction pathway such as the gp130 receptor. Since dimerization and activation of STAT3 is dependent on its phosphorylation in both, tyrosine 705 (pY^705) and serine 727 (pS^727) residues, the inventors next examined the effect of M16αα on the phosphorylation of STAT3. Thus, HepG2 cells were incubated with M16αα (200 μM) for 17 and 24 h. […]

Experiment [2] relates to liver APP (SAP, SAA, α-fibrinogen) and IL-6 gene expression. As to the kind of experiment: Liver Acute Phase Proteins and IL-6 gene expression in EAE mice (real time PCR). Type of experiment: in vivo. As to conditions: EAE mice 60 mg/kg/day 12 days by gavage. Here is the method:
(§1) To further investigate the preventive potential of MEDICA drugs, and specifically of M16αα on EAE model, the effect of these drugs on different pathways involving activation of the immune system have been next examined. Therefore, female mice were treated with M16αα (60 mg/kg/day) or vehicle (1% CMC, the control group) for 12 days by gavage. On the third day EAE has been induced by injection of the MOG35-55 peptide. Nine days following MOG35-55 peptide immunization, mice were anesthesized and sacrificed. Spleenocytes were prepared and were stimulated in vitro with either MOG (100 μg/ml) or LPS (50 μg/ml) and the activation of STAT3 was analyzed by Western blot using anti p-STAT3 (Y705) and anti GP130 antibodies. Liver was immediately frozen in liquid nitrogen and kept at −70 until used for protein and RNA preparation. Total RNA was prepared and analyzed by real time PCR for SAP, SAA, α-fibrinogen and IL-6 gene expression.
For orientation: Real-time PCR tracks product formation cycle by cycle.

Experiment [3] concerns STAT3. As to the kind of experiment: STAT3 phosphorylation in MM U266 cells (Western blot). Format: cell-based. The note with it: 200 μM, RPMI 1640, 10% FCS. Here is the method: U266 cells were cultured with 200 μM M16αα for time periods as indicated, lysed, Western blotted and reacted with anti STAT3, p-STAT3 (Y705), PARP or Bcl-xL antibodies.
To examine the possibility that the inhibitory effect of M16αα, on Multiple Myeloma may be mediated by enhancement of pro apoptotic mechanism and induction of cell cycle arrest, U266 cells were cultured with 200 μM M16αα in RPMI 1640 medium with 10% FCS for time periods as indicated, lysed, Western blotted and reacted with anti STAT3, p-STAT3 (Y705), PARP or Bcl-xL and Bcl-2 as indicated.
(In general: Immunoblotting shows a protein as a band on a membrane.)

Another experiment concerns STAT3, GP130. Description: STAT3 activation and GP130 in stimulated spleen cells of treated EAE mice (Western blot). Format: in vivo. As to conditions: EAE mice 60 mg/kg/day 12 days by gavage. Here is the method: as §1
Another experiment has as its system RPMI8226 cells. Description: Growth of Multiple Myeloma RPMI8226 cells, Trypan Blue exclusion. Format: cell-based. As to conditions: 200 μM, from day one. As to the method:
Growth Suppression by M16αα of Multiple Myeloma (MM) cells. MM cells were incubated in RPMI 1640 medium in the presence of added M16αα as indicated. Cell number was determined daily by Trypan Blue exclusion.
The inhibitory effect of MEDICA drugs on colon tumor cell proliferation, presumably via activation of apoptosis, encouraged the inventors to further investigate the potential beneficial effect of these compounds on other malignancies. The inventors therefore next examined the effect of the MEDICA drugs using the Multiple myeloma model. U-266 and RPMI-8226 cell lines served as cell models for MM. MM cells were incubated in RPMI 1640 medium in the presence of M16αα as indicated. Cell number was determined daily by Trypan Blue exclusion assay. […] It should be noted that generally, these cells were more sensitive even to lower concentrations of M16αα.

For a further experiment, the system named is HT29 colon cancer cells. Description: BrdU incorporation assay in HT29 colon cancer cells. Format: cell-based. As to conditions: 200 μM. Here is the method:
Cells were cultured in Dulbecco's Modified Eagle Medium (DMEM) supplemented with 10% fetal calf serum, glutamine and antibiotics (100,000 units/L penicillin and 100 mg/L streptomycin sulfate).
The involvement of MEDICA drugs in signal transduction pathways related to immuno-modulatory mechanisms have led the inventors to further investigate the effect of the MEDICA drugs in different disorders associated with abnormal immune reaction. Since cancerous processes may be promoted as a result of interruption of the Th1/Th2 balance, the possible beneficial effect of the MEDICA drugs on tumor proliferation and progression have been next examined. The effect of different concentrations M16αα on cell proliferation was first examined in vitro using the HT29 colon cancer cells as a model for colon cancer. Cells were cultured in the presence of different concentrations of M16αα (50, 100, and 200 μM). Samples obtained from days 1, 2, 3 and 6 were analyzed for cell number using the trypan blue exclusion assay. Proliferation was measured by BrdU incorporation assay.
In general terms: Dividing cells build labelled thymidine or BrdU into new DNA.

[4] abbreviates: 200 mM M16αα 40 h, IL-6 20 ng/ml last 15 h.

As for `CC(C)(CCCCCCCCCCCCC(C)(C)C(=O)O)C(=O)O` [M16αα, 2,2,15,15-tetramethyl-hexadecanedioic acid], the “LIF-induced phosphorylation of tyrosine 705 residue of STAT3” value in the experiment on STAT3 [1] (200 μM for 17 and 24 h, LIF 20 ng/ml) is recorded as “clearly inhibits”. In the experiment with STAT3 [1] (setting [4]), the “expression of STAT3 (total STAT3)” value is recorded as “not affected” and the “phosphorylation of STAT3 serine 727 residue” value was “significantly inhibited”. In addition, the “liver APP and IL-6 gene expression” value in experiment [2] is given as “robustly suppressed”. The “STAT3 phosphorylation (p-STAT3 Y705)” value in the experiment on STAT3 [3] is “clear reduction”. The “LPS-induced STAT3 (p-STAT3 Y705) in spleen cells” value in the experiment on STAT3, GP130 (spleenocytes stimulated in vitro with LPS 50 μg/ml) was “not the LPS-induced STAT3 is suppressed”. The “MOG-induced STAT3 (p-STAT3 Y705) in spleen cells” value with STAT3, GP130 (spleenocytes stimulated in vitro with MOG 100 μg/ml) is on record as “suppressed”. Also, in the experiment on RPMI8226 cells, the “cell number relative to control” value is reported as “about 20 % of control”. In the experiment with HT29 colon cancer cells, the BrdU incorporation result is listed as “significantly reduces”.
